These results are taken from US5821240A, “Pyrimido[5,4]-dipyrimidines, pharmaceuticals containing them, their use and processes for the preparation thereof” (Dr. Karl Thomae GmbH, priority 1996, dated 1998).

Usually pIC50 stands for the IC50 on a negative log10 scale, so that one unit is a factor of ten. Low readings indicate a large IC50, high ones a small IC50.

pIC50: −log10 of the molar value. Some results are limits rather than exact numbers.

The test system of one assay is F/L-HERc cells. Put plainly: Inhibition of IL-3-dependent proliferation of F/L-HERc cells. It counts as cell-based. To be noted: Mus musculus, murine IL-3, 37° C., 48 hours. An excerpt:
(§1) In this case, an interleukin-3 (IL-3)-dependent cell line of murine origin was used and was genetically modified in such a way that it expresses functional human EGF-R. Proliferation of these cells, which are called F/L-HERc, can therefore be stimulated either by murine IL-3 or by EGF (see von Ruden, T. et al. in EMBO J. 7, 2749-2756 (1988) and Pierce, J. H. et al. in Science 239, […] (1988)).
(§2) The starting material for the F/L-HERc cells was the cell line FDC-P1 whose preparation has been described by Dexter, T. M. et al. in J. Exp. Med. 152, 1036-1047 (1980). However, it is also possible as an alternative to use other growth factor-dependent cells (see, for example, Pierce, J. H. et al. in Science 239, 628-631 (1988), Shibuya, H. et al. in Cell 70, 57-67 (1992) and Alexander, W. S. et al. in EMBO J. 10, 3683-3691 (1991)). Recombinant retroviruses as described in von Ruden, T. et al., EMBO J. 7, 2749-2756 (1988) Were used for expression of the human EGF-R cDNA (see Ullrich, A. et al. in Nature 309, 418-425 (1984)), with the difference that the retroviral vector LXSN (see Miller, A. D. et al. in BioTechniques 7, 980-990 (1989)) was employed for expression of the EGF-R cDNA, and the line GP+E86 (see Markowitz, D. et al. in J. Virol. 62, 1120-1124 (1988)) was used as packaging cell.
(§3) F/L-HERc cells were cultivated in RPMI/1640 medium (BioWhittaker), supplemented with 10% fetal calf serum (FCS, Boehringer Mannheim), 2 mM glutamine (BioWhittaker), standard antibiotics and 20 ng/ml human EGF (Promega), at 37° C. and 5% CO2. To investigate the inhibitor activity of the compounds according to the invention, 1.5×10^4 cells were cultivated in the above medium (200 μl) per well in triplicates in 96-well plates, stimulating proliferation of the cells either with EGF (20 ng/ml) or with murine IL-3. The source used for IL-3 was culture supernatants from the cell line X63/0 mIL-3 (see Karasuyama, H. et al. in Eur. J. Immunol. 18, 97-104 (1988)). The compounds according to the invention were dissolved in 100% dimethyl sulphoxide (DMSO) and added in various dilutions to the cultures, with the maximum DMSO concentration being 1%. The cultures were incubated at 37° C. for 48 hours.
(§4) To determine the inhibitory activity of the compounds according to the invention, the relative cell count was measured in O.D. units using the Cell Titre 96™ AQueous Non-Radioactive Cell Proliferation Assay (Promega). The relative cell count was calculated as a percent of the control (F/L-HERc cells without inhibitor), and the concentration of active substance which inhibits the proliferation of the cells by 50% (IC50) was inferred.

In assay [1] the test system is human tumour cell line KB. Briefly: Inhibition of EGF/TGF-alpha-stimulated KB cell proliferation ([3H]-thymidine incorporation). It counts as cell-based. To be noted: TGF-alpha 10 ng/ml or EGF 20 ng/ml, serum-free, 60 hours then [3H]-thymidine 16-18 h. The method, then:
KB cells (purchased from ATCC) were passaged in DMEM (BioWhittaker) in the presence of 10% FCS (Boehringer Mannheim), 50 μM beta-mercaptoethanol and standard antibiotics. The EGF-induced DNA synthesis was determined by measuring the incorporation of radioactively labelled thymidine as indicator of EGF/TGF-alpha-stimulated cell proliferation. To do this, the cells were washed twice and 1500 cells per well were plated out in a 96-well plate in 200 μl of IMDM (BioWhittaker) without serum in the presence of 50 μM beta-mercaptoethanol, standard antibiotics, TGF-alpha [10 ng/ml] or EGF [20 ng/ml] and of various concentrations of the substances according to the invention (triplicates, maximum DMSO concentration 1%, see proliferation t t with F/L-HERc cells). After 60 hours, [^3 H]-thymidine (0.1 μCi in 10 μl) was added for about 16-18 h.

In assay [2] the test system is F/L-HERc cells expressing human EGF-R. Put plainly: Inhibition of EGF-dependent proliferation of F/L-HERc cells. To be noted: EGF 20 ng/ml, 37° C., 48 hours. It counts as cell-based, murine cell line; human EGF-R.
Description: as §1, §2, §3, §4

With `Nc1c(Cl)cc(Nc2ncnc3cnc(N[C@H]4CC[C@H](C(=O)N5CCCC5)CC4)nc23)cc1Cl` [1(18), 4-[(4-Amino-3,5-dichlorophenyl)amino]-6-[trans-4-(pyrrolidinocarbonyl)cyclohexylamino]pyrimido[5,4-d]pyrimidine], the pIC50 was under 6.00 with F/L-HERc cells, 6.00 to 7.00 in assay [1] and 8.52 in assay [2].

Take `Fc1ccc(Nc2ncnc3cnc(NC4CN5CCC4CC5)nc23)cc1Cl` (racemic) [1(4), (3'RS)-4-[(3-Chloro-4-fluorophenyl)amino]-6-[(3'-quinuclidinyl)amino]pyrimido[5,4-d]pyrimidine]: the values for the negative-log IC50 (pIC50) (with F/L-HERc cells; in assay [1]; in assay [2]) were under 5.00, 6.00 to 7.00 and 7.82, respectively.

Regarding `CC(C)(C)OC(=O)N1CCN(CCNc2ncc3ncnc(Nc4ccc(F)c(Cl)c4)c3n2)CC1` [1(35), 4-[(3-Chloro-4-fluorophenyl)amino]-6-[2-(4-tert-butyloxycarbonyl-1-piperazinyl)ethylamino]pyrimido[5,4-d]pyrimidine], the negative logarithm of the IC50 (pIC50) with F/L-HERc cells was under 6.00; in assay [2], 6.62.

Regarding `COC(=O)[C@H]1CC[C@H](Nc2ncc3ncnc(Nc4cc(Cl)c(N)c(Cl)c4)c3n2)CC1` [1(15), 4-[(4-Amino-3,5-dichlorophenyl)amino]-6-[(trans-4-methoxycarbonylcyclohexyl)amino]pyrimido[5,4-d]pyrimidine], the pIC50 with F/L-HERc cells was under 5.00; in assay [2] it was 7.82.

With `Nc1ncc2ncnc(Nc3ccc(F)c(Cl)c3)c2n1` [1(53), 4-[(3-Chloro-4-fluorophenyl)amino]-6-aminopyrimido-[5,4-d]pyrimidine], the pIC50 was under 6.00 in the assay on F/L-HERc cells and under 7.00 in assay [2].

For the compound `NCC1CCCN(c2ncc3ncnc(Nc4ccc(F)c(Cl)c4)c3n2)C1` (stereo not drawn) [1(61), 4-[(3-Chloro-4-fluorophenyl)amino]-6-[3-aminomethyl-1-piperidinyl]pyrimido[5,4-d]pyrimidine], the negative-log IC50 (pIC50) with F/L-HERc cells was under 6.00; in assay [2], 7.30.

On to `Fc1ccc(Nc2ncnc3cnc(N4CCCNCC4)nc23)cc1Cl` [1(13), 4-[(3-Chloro-4-fluorophenyl)amino]-6-[1-homopiperazinyl]-pyrimido[5,4-d]pyrimidine], for which the pIC50 with F/L-HERc cells was under 5.00; in assay [2] it was 6.82.

On to `N#CN1CCC(Nc2ncc3ncnc(Nc4ccc(F)c(Cl)c4)c3n2)CC1` [1(50), 4-[(3-Chloro-4-fluorophenyl)amino]-6-[(1-cyano-4-piperidinyl)amino]pyrimido[5,4-d]pyrimidine], for which the negative logarithm of the IC50 (pIC50) with F/L-HERc cells was under 6.00; in assay [2], 8.52.

For `Fc1ccc(Nc2ncnc3cnc(N4CCCCCC4)nc23)cc1Cl` [1(55), 4-[(3-Chloro-4-fluorophenyl)amino]-6-[1-azacycloheptyl]pyrimido[5,4-d]pyrimidine], the pIC50 with F/L-HERc cells was under 6.00; in assay [2], 7.40.

`OC1CCN(c2ncc3ncnc(Nc4ccc(F)c(Cl)c4)c3n2)CC1` [1(48), 4-[(3-Chloro-4-fluorophenyl)amino]-6-[4-hydroxy-1-piperidinyl]pyrimido[5,4-d]pyrimidine]: the pIC50 in the assay with F/L-HERc cells was under 6.00; in assay [2], 7.44.

For the compound `COc1cccc(N2CCN(c3ncc4ncnc(Nc5ccc(F)c(Cl)c5)c4n3)CC2)c1` [1(32), 4-[(3-Chloro-4-fluorophenyl)amino]-6-[4-(3-methoxyphenyl)-1-piperazinyl]pyrimido[5,4-d]pyrimidine], the negative logarithm of the IC50 (pIC50) with F/L-HERc cells is under 4.70; in assay [2], under 6.00.

Regarding `NCCNc1ncc2ncnc(Nc3ccc(F)c(Cl)c3)c2n1` [1(6), 4-[(3-Chloro-4-fluorophenyl)amino]-6-[2-aminoethylamino]-pyrimido[5,4-d]pyrimidine], the pIC50 in the assay on F/L-HERc cells is under 5.00; in assay [2] it was 6.91.

For `CN1CCC(N(C)c2ncc3ncnc(Nc4ccc(F)c(Cl)c4)c3n2)CC1` [1(28), 4-[(3-Chloro-4-fluorophenyl)amino]-6-[N-methyl-N-(1-methyl-4-piperidinyl)amino]pyrimido[5,4-d]pyrimidine], the negative logarithm of the IC50 (pIC50) in the assay on F/L-HERc cells was 5.00; in assay [2] it was 7.85.

In the case of `Fc1ccc(Nc2ncnc3cnc(N4CCC(N5CCOCC5)CC4)nc23)cc1Cl` [1(30), 4-[(3-Chloro-4-fluorophenyl)amino]-6-[4-(morpholino)-1-Piperidinyl]pyrimido[5,4-d]pyrimidine], the pIC50 in the assay on F/L-HERc cells is under 4.70; in assay [2], 6.90.

Consider `CN1CCCN(c2ncc3ncnc(Nc4ccc(F)c(Cl)c4)c3n2)CC1` [1(12), 4-[(3-Chloro-4-fluorophenyl)amino]-6-[4-methyl-1-homopiperazinyl]pyrimido[5,4-d]pyrimidine], for which the pIC50 is under 5.00 with F/L-HERc cells and 6.43 in assay [2].

In the case of `COC(=O)[C@H]1CC[C@H](Nc2ncc3ncnc(Nc4ccc(F)c(Cl)c4)c3n2)CC1` [Example 1, 4-[(3-Chloro-4-fluorophenyl)amino]-6-[(trans-4-methoxycarbonylcyclohexyl)amino]pyrimido[5,4-d]pyrimidine], the negative logarithm of the IC50 (pIC50) in the assay with F/L-HERc cells is under 5.00; in assay [2] it was 6.70.

In the case of `O=CNC1CCN(c2ncc3ncnc(Nc4ccc(F)c(Cl)c4)c3n2)CC1` [1(5), 4-[(3-Chloro-4-fluorophenyl)amino]-6-[4-formylamino-1-piperidinyl]pyrimido[5,4-d]pyrimidine], the pIC50 with F/L-HERc cells is under 5.00; in assay [2], 7.68.

On to `O=C(N1CCOCC1)N1CCN(CCNc2ncc3ncnc(Nc4ccc(F)c(Cl)c4)c3n2)CC1` [1(52), 4-[(3-Chloro-4-fluorophenyl)amino]-6-[2-(4-(morpholinocarbonyl)-1-piperazinyl)ethylamino]pyrimido[5,4-d]pyrimidine], for which the pIC50 is under 6.00 in the assay on F/L-HERc cells and 8.00 in assay [2].

For `CC1CC(c2ccc(O)cc2)CN1c1ncc2ncnc(Nc3ccc(F)c(Cl)c3)c2n1` (stereo not drawn) [1(36), 4-[(3-Chloro-4-fluorophenyl)amino]-6-[4-(4-hydroxyphenyl)-2-methyl-1-pyrrolidinyl]pyrimido[5,4-d]pyrimidine], the negative logarithm of the IC50 (pIC50) is under 6.00 with F/L-HERc cells and 6.85 in assay [2].

Consider `CC(C)(C)OC(=O)N1CCC(Nc2ncc3ncnc(Nc4ccc(F)c(Cl)c4)c3n2)CC1` [1(2), 4-[(3-Chloro-4-fluorophenyl)amino]-6-[1-tert-butyloxycarbonyl-4-piperidinylamino]pyrimido[5,4-d]pyrimidine], for which the negative logarithm of the IC50 (pIC50) in the assay on F/L-HERc cells is under 5.00; in assay [2], 7.36.

For `COc1ccccc1N1CCN(c2ncc3ncnc(Nc4ccc(F)c(Cl)c4)c3n2)CC1` [1(33), 4-[(3-Chloro-4-fluorophenyl)amino]-6-[4-(2-methoxyphenyl)-1-piperazinyl]pyrimido[5,4-d]pyrimidine], the results for the pIC50 (with F/L-HERc cells; in assay [2]) were under 4.70 and under 6.00, respectively.

On to `COC(CNc1ncc2ncnc(Nc3ccc(F)c(Cl)c3)c2n1)OC` [1(25), 4-[(3-Chloro-4-fluorophenyl)amino]-6-[2,2-dimethoxyethylamino]pyrimido[5,4-d]pyrimidine], for which the pIC50 with F/L-HERc cells was under 4.70; in assay [2], 7.55.

For the compound `OCc1cccc(Nc2ncnc3cnc(N[C@H]4CC[C@H](O)CC4)nc23)c1` [1(47), 4-[(3-Hydroxymethylphenyl)amino]-6-[trans-4-hydroxycyclohexylamino]pyrimido[5,4-d]pyrimidine], the negative-log IC50 (pIC50) is under 6.00 with F/L-HERc cells and under 7.00 in assay [2].
